Results published in PMC12497685, “Anticoronavirus Isoquinoline Alkaloids: Unraveling the Secrets of Their Structure–Activity Relationship” (Influenza and Other Respiratory Viruses, 2025).
Values joined by “and” are separate entries in the source; they are usually repeats but may differ in a detail not shown here. Identical values can stand only once. Like-named read-outs stand apart in the source and are kept apart here.

Tests used:
[1] = tested on: hACE‐2‐overexpressed HEK293T (ACE2‐293T cells)
HCoV‐229E = experiment: microbe, parasite or virus in culture; format: cell-based; conditions: for inhibition at 10 µM: Human coronavirus 229E, Huh-7, read-out: Protective effects HCoV-229E %; for inhibition at 10 µM / Protective effects HCoV-229E %: compared with vehicle control, Huh7 cells, n = 1, at 10 μM
Huh7 cells = conditions: at 10 μM, compared with vehicle control, n = 1
in vitro = conditions: human

Row | Compound | inhibition at 10 µM (HCoV‐229E) | Cytotoxicity to the host Huh7 cells % (Huh7 cells) | Protective effects HCoV-229E % (HCoV‐229E) | other results
1 | COc1cc2c3cc1Oc1c(OC)c(OC)cc4c1[C@@H](Cc1ccc(O)c(c1)Oc1ccc(cc1)C[C@@H]3N(C)CC2)N(C)CC4 [Compound 17, (+)‐berbamine] | 70% | 25% and ~ 20% |  | cytotoxicity towards hACE2‐293 T cells (in words) [1]: nontoxic; viability at 10 µM (in vitro): 103 ± 2.42%
2 | COc1cc2c3cc1Oc1c(O)c(OC)cc4c1[C@@H](Cc1ccc(O)c(c1)Oc1ccc(cc1)C[C@@H]3N(C)CC2)N(C)CC4 [Compound 19, (+)‐obamegine] | 80% | — (Non-toxic (insignificant cytotoxic effects, below 20%)) |  | cytotoxicity towards hACE2‐293 T cells (in words) [1]: nontoxic; viability at 10 µM (in vitro): 97.5 ± 7.15%
3 | CN1Cc2c(ccc3c2OCO3)[C@@H]2[C@H]1c1cc3c(cc1C[C@@H]2O)OCO3 [Compound 50, chelidonine] | < 20% | 35% and 35%–40% |  | 
4 | CCOC1c2c(ccc3c2OCO3)-c2ccc3cc4c(cc3c2N1C)OCO4 (stereo not shown) [Compound 51, 6‐ethoxydihydrosanguinarine] |  | 90% and > 80% | — (Not active (insignificant protective effects below 20%)) | 
5 | CCOC1c2c(ccc(OC)c2OC)-c2ccc3cc4c(cc3c2N1C)OCO4 (stereo not shown) [Compound 52, 6‐ethoxydihydrochelerytrine] |  | 80% and > 80% | — (Not active (insignificant protective effects below 20%)) | 
6 | COc1ccc(Cc2nccc3cc(OC)c(OC)cc23)cc1OC [Compound 53, papaverine] | < 20% | 20% |  | 
7 | COC1=CC=C2[C@H]3Cc4ccc(OC)c5c4[C@@]2(CCN3C)[C@H]1O5 [Compound 54, thebaine] | < 20% | — (Non-toxic (insignificant cytotoxic effects, below 20%)) |  | 
8 | COc1ccc2c(c1OC)C(=O)O[C@@H]2[C@H]1c2c(cc3c(c2OC)OCO3)CCN1C [Compound 55, (−)‐narcotine] | < 20% | 20% |  | 
9 | COc1ccc2c(c1O)-c1c(OC)c(OC)cc3c1[C@H](C2)NCC3 [Compound 57, norisocoridine] |  | — (Non-toxic (insignificant cytotoxic effects, below 20%)) | — (Not active (insignificant protective effects below 20%)) | 
10 | COc1cc2c(cc1O)C[C@@H]1NCCc3cc(OC)c(OC)c-2c31 [Compound 58, (+)‐laurotetanine] |  | — (Non-toxic (insignificant cytotoxic effects, below 20%)) | — (Not active (insignificant protective effects below 20%)) | 
11 | COC1=C[C@]23CCN(C)[C@H](Cc4ccc(OC)c(O)c42)C3=CC1=O [Compound 59, (−)‐salutaridine] |  | — (Non-toxic (insignificant cytotoxic effects, below 20%)) | — (Not active (insignificant protective effects below 20%)) | 
12 | COC1=C[C@@]23CCN(C)[C@@H](Cc4cc(O)c(OC)cc42)C3=CC1=O [Compound 60, (−)‐pallidine] |  | — (Non-toxic (insignificant cytotoxic effects, below 20%)) | — (Not active (insignificant protective effects below 20%)) | 
13 | COc1cc2c(cc1OC)-c1c(OC)c(OC)cc3ccnc(c13)C2=O [Compound 61, oxoglaucine] | < 20% | — (Non-toxic (insignificant cytotoxic effects, below 20%)) |  | 
14 | O=C1c2ccccc2-c2c3c(cc4ccnc1c24)OCO3 [Compound 62, liriodenine] | < 20% | — (Non-toxic (insignificant cytotoxic effects, below 20%)) |  | 
15 | (+)‐aromoline [Compound 16] |  | — (Non-toxic (insignificant cytotoxic effects, below 20%)) | 85% | cytotoxicity towards hACE2‐293 T cells (in words) [1]: nontoxic; Cell viability (%) ([1]; 10 µM): 103.64 ± 3.23%; EC50 (HCoV‐229E): 4.33 ± 0.9 µM
16 | (±)‐Haemanthidine [Compound 1] |  | 20% and ~ 20% | 80% | cytotoxicity towards hACE2‐293 T cells (in words) [1]: toxic; Cell viability (%) ([1]; ACE2-293T, 10 μM, 24 h, WST-1): 51.97 ± 7.07%; EC50 (HCoV‐229E): 4.11 ± 0.41 µM
17 | (±)‐O‐methylfumarofine [Compound 44] |  | — (Non-toxic (insignificant cytotoxic effects, below 20%)) | — (Not active (insignificant protective effects below 20%)) | 
18 | (−)‐O‐methylcaryachine [Compound 35] |  | — (Non-toxic (insignificant cytotoxic effects, below 20%)) | — (Not active (insignificant protective effects below 20%)) | 
19 | (−)‐berkristine [Compound 21] |  | — (Non-toxic (insignificant cytotoxic effects, below 20%)) | 65% | 
20 | (−)‐corypalmine [Compound 25] |  | — (Non-toxic (insignificant cytotoxic effects, below 20%)) | — (Not active (insignificant protective effects below 20%)) | 
21 | (−)‐fumarophycine hydrochloride [Compound 37] |  | — (Non-toxic (insignificant cytotoxic effects, below 20%)) | — (Not active (insignificant protective effects below 20%)) | 
22 | (−)‐undulatine [Compound 13] |  | — (Non-toxic (insignificant cytotoxic effects, below 20%)) | — (Not active (insignificant protective effects below 20%)) | 
23 | N‐methyllaurotetanine [Compound 56] |  | — (Non-toxic (insignificant cytotoxic effects, below 20%)) | — (Not active (insignificant protective effects below 20%)) | 
24 | seco‐isopowellaminone [Compound 6] |  | 20% | — (Not active (insignificant protective effects below 20%)) | 
